Assay results reported in patent US12180187B2, “1-phenyl-5-azinylpyrazolyl-3-oxyalkyl acids and their use for controlling unwanted plant growth” (BAYER AKTIENGESELLSCHAFT, priority 2019, dated 2024).

What was measured:
[1] = tested on: STEME; assay: Pre-emergence action against STEME, 1280 g/ha; assay type: in vivo, Stellaria media; conditions: scored visually after about 3 weeks vs untreated controls (100% = plants have died)
Outline: (§1)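 Visual percent-effect ratings (0% = like control, 100% = plants dead) were taken about 3 weeks after pre-emergence soil-surface application of WP/EC aqueous formulations with 0.5% additive, 600 L water/ha. Seeds were sown in sandy loam and grown in the greenhouse.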

[2] = tested on: POAAN; assay: Post-emergence action against POAAN, 1.28 kg/ha; assay type: in vivo, Poa annua; conditions: dosage 1280 g/ha, visual rating about 3 weeks after treatment vs untreated controls
Outline: (§2)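 Spray at one-leaf stage with WP/EC + 0.5% additive, 600 L water/ha. Greenhouse, optimum conditions, ~3 wk. Visual % control vs untreated; 0 = no effect, 100 = dead.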

[3] = tested on: POLCO; assay: Pre-emergence action at 320 g/ha against POLCO; assay type: in vivo, Fallopia convolvulus (Polygonum convolvulus); conditions: visual scoring after about 3 weeks vs untreated controls
Outline: (§3)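 Percent herbicidal activity was assessed by eye roughly three weeks post-application, comparing with untreated plants. Treatment consisted of applying formulated compound in water plus 0.5% additive to covering soil at 600 l/ha before emergence.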

[4] = tested on: DIGSA; assay: Pre-emergence action at 320 g/ha against DIGSA; assay type: in vivo, Digitaria sanguinalis; conditions: visual scoring after about 3 weeks vs untreated controls
Outline: as §3

[5] = tested on: STEME; assay: Post-emergence action against STEME, 1.28 kg/ha; assay type: in vivo, Stellaria media; conditions: dosage 1280 g/ha, visual rating about 3 weeks after treatment vs untreated controls (100% = plants died)
Outline: as §2

[6] = tested on: AMARE; assay: Pre-emergence action at 320 g/ha against AMARE; assay type: in vivo, Amaranthus retroflexus; conditions: visual scoring after about 3 weeks vs untreated controls
Outline: as §3

[7] = tested on: ALOMY; assay: Pre-emergence action at 320 g/ha against ALOMY; assay type: in vivo, Alopecurus myosuroides; conditions: scored visually after about 3 weeks vs untreated controls (100% = plants have died)
Outline: as §3

[8] = tested on: ABUTH; assay: Post-emergence action against ABUTH, 1.28 kg/ha; assay type: in vivo, Abutilon theophrasti; conditions: dosage 1280 g/ha, visual rating about 3 weeks after treatment vs untreated controls (100% = plants died)
Outline: as §2

[9] = tested on: POAAN; assay: Pre-emergence action against POAAN, 1280 g/ha; assay type: in vivo, Poa annua; conditions: visual scoring after about 3 weeks vs untreated controls, 100% = plants have died, 0% = like control plants
Outline: as §1

[10] = tested on: SETVI; assay: Pre-emergence action at 320 g/ha against SETVI; assay type: in vivo, Setaria viridis; conditions: visual scoring after about 3 weeks vs untreated controls
Outline: as §3

[11] = tested on: ABUTH; assay: Pre-emergence action against ABUTH, 1280 g/ha; assay type: in vivo, Abutilon theophrasti; conditions: scored visually after about 3 weeks vs untreated controls (100% = plants have died)
Outline: as §1

[12] = tested on: SETVI; assay: Pre-emergence action against SETVI, 1280 g/ha; assay type: in vivo, Setaria viridis; conditions: visual scoring after about 3 weeks vs untreated controls, 100% = plants have died, 0% = like control plants
Outline: as §1

[13] = tested on: AMARE; assay: Pre-emergence action against AMARE, 1280 g/ha; assay type: in vivo, Amaranthus retroflexus; conditions: scored visually after about 3 weeks vs untreated controls (100% = plants have died)
Outline: as §1

[14] = tested on: MATIN; assay: Pre-emergence action against MATIN, 1280 g/ha; assay type: in vivo, Tripleurospermum inodorum (Matricaria inodora); conditions: scored visually after about 3 weeks vs untreated controls (100% = plants have died)
Outline: as §1

[15] = tested on: ECHCG; assay: Pre-emergence action against ECHCG, 1280 g/ha; assay type: in vivo, Echinochloa crus-galli; conditions: visual scoring after about 3 weeks vs untreated controls, 100% = plants have died, 0% = like control plants
Outline: as §1

CCOC(=O)COc1nn(-c2ccccc2F)c(-c2ccc(F)nc2)c1C(F)(F)F [VII-010]
Pre-emergence action against STEME [1]: 100%
Post-emergence action against POAAN [2]: 100%
Pre-emergence action against POLCO in % [3]: 90%
Pre-emergence action against DIGSA in % [4]: 100%
Post-emergence action against STEME [5]: 100%
Pre-emergence action against AMARE in % [6]: 100%
Pre-emergence action at 320 g/ha against ALOMY in % [7]: 100%
Post-emergence action against ABUTH [8]: 90%
Pre-emergence action against POAAN [9]: 100%
Pre-emergence action against SETVI in % [10]: 100%
Pre-emergence action against ABUTH [11]: 100%
Pre-emergence action against SETVI [12]: 100%
Pre-emergence action against AMARE [13]: 100%
Pre-emergence action against MATIN [14]: 90%
Pre-emergence action against ECHCG [15]: 100%

CCOC(=O)COc1nn(-c2ccccc2F)c(-c2cncc(F)c2)c1Br [VII-015]
Pre-emergence action against STEME [1]: 100%
Post-emergence action against POAAN [2]: 100%
Pre-emergence action against POLCO in % [3]: 100%
Pre-emergence action against DIGSA in % [4]: 100%
Post-emergence action against STEME [5]: 100%
Pre-emergence action against AMARE in % [6]: 100%
Pre-emergence action at 320 g/ha against ALOMY in % [7]: 100%
Post-emergence action against ABUTH [8]: 90%
Pre-emergence action against POAAN [9]: 100%
Pre-emergence action against SETVI in % [10]: 100%
Pre-emergence action against ABUTH [11]: 90%
Pre-emergence action against SETVI [12]: 100%
Pre-emergence action against AMARE [13]: 100%
Pre-emergence action against MATIN [14]: 100%
Pre-emergence action against ECHCG [15]: 100%

CCOC(=O)COc1nn(-c2ccc(F)cc2F)c(-c2ccc(F)nc2)c1Cl [VII-016]
Pre-emergence action against STEME [1]: 100%
Post-emergence action against POAAN [2]: 100%
Pre-emergence action against POLCO in % [3]: 90%
Pre-emergence action against DIGSA in % [4]: 100%
Post-emergence action against STEME [5]: 100%
Pre-emergence action against AMARE in % [6]: 100%
Pre-emergence action at 320 g/ha against ALOMY in % [7]: 100%
Post-emergence action against ABUTH [8]: 90%
Pre-emergence action against POAAN [9]: 100%
Pre-emergence action against SETVI in % [10]: 100%
Pre-emergence action against ABUTH [11]: 100%
Pre-emergence action against SETVI [12]: 100%
Pre-emergence action against AMARE [13]: 100%
Pre-emergence action against MATIN [14]: 90%
Pre-emergence action against ECHCG [15]: 100%

COC(=O)COc1nn(-c2ccccc2)c(-c2ccc(F)nc2)c1Br [VII-018]
Pre-emergence action against STEME [1]: 100%
Post-emergence action against POAAN [2]: 100%
Pre-emergence action against POLCO in % [3]: 100%
Pre-emergence action against DIGSA in % [4]: 100%
Post-emergence action against STEME [5]: 100%
Pre-emergence action against AMARE in % [6]: 100%
Pre-emergence action at 320 g/ha against ALOMY in % [7]: 100%
Post-emergence action against ABUTH [8]: 90%
Pre-emergence action against POAAN [9]: 100%
Pre-emergence action against SETVI in % [10]: 100%
Pre-emergence action against ABUTH [11]: 90%
Pre-emergence action against SETVI [12]: 100%
Pre-emergence action against AMARE [13]: 100%
Pre-emergence action against MATIN [14]: 90%
Pre-emergence action against ECHCG [15]: 100%

O=C(O)COc1nn(-c2ccccc2F)c(-c2cncc(F)c2)c1Br [VII-025]
Pre-emergence action against STEME [1]: 100%
Post-emergence action against POAAN [2]: 100%
Pre-emergence action against POLCO in % [3]: 100%
Pre-emergence action against DIGSA in % [4]: 100%
Post-emergence action against STEME [5]: 100%
Pre-emergence action against AMARE in % [6]: 100%
Pre-emergence action at 320 g/ha against ALOMY in % [7]: 100%
Post-emergence action against ABUTH [8]: 90%
Pre-emergence action against POAAN [9]: 100%
Pre-emergence action against SETVI in % [10]: 100%
Pre-emergence action against ABUTH [11]: 90%
Pre-emergence action against SETVI [12]: 100%
Pre-emergence action against AMARE [13]: 100%
Pre-emergence action against MATIN [14]: 100%
Pre-emergence action against ECHCG [15]: 100%

COC(=O)C(C)Oc1nn(-c2ccccc2)c(-c2ccc(F)nc2)c1Br (stereo not drawn) [VII-026]
Pre-emergence action against STEME [1]: 90%
Post-emergence action against POAAN [2]: 100%
Pre-emergence action against POLCO in % [3]: 100%
Pre-emergence action against DIGSA in % [4]: 100%
Post-emergence action against STEME [5]: 100%
Pre-emergence action against AMARE in % [6]: 100%
Pre-emergence action at 320 g/ha against ALOMY in % [7]: 100%
Post-emergence action against ABUTH [8]: 90%
Pre-emergence action against POAAN [9]: 100%
Pre-emergence action against SETVI in % [10]: 80%
Pre-emergence action against ABUTH [11]: 90%
Pre-emergence action against SETVI [12]: 100%
Pre-emergence action against AMARE [13]: 100%
Pre-emergence action against MATIN [14]: 90%
Pre-emergence action against ECHCG [15]: 90%

COC(=O)COc1nn(-c2ccccc2F)c(-c2ccc(F)nc2)c1C(F)(F)F [VII-031]
Pre-emergence action against STEME [1]: 100%
Post-emergence action against POAAN [2]: 100%
Pre-emergence action against POLCO in % [3]: 100%
Pre-emergence action against DIGSA in % [4]: 100%
Post-emergence action against STEME [5]: 100%
Pre-emergence action against AMARE in % [6]: 100%
Pre-emergence action at 320 g/ha against ALOMY in % [7]: 100%
Post-emergence action against ABUTH [8]: 90%
Pre-emergence action against POAAN [9]: 100%
Pre-emergence action against SETVI in % [10]: 100%
Pre-emergence action against ABUTH [11]: 90%
Pre-emergence action against SETVI [12]: 100%
Pre-emergence action against AMARE [13]: 100%
Pre-emergence action against MATIN [14]: 100%
Pre-emergence action against ECHCG [15]: 90%

COC(=O)COc1nn(-c2ccccc2F)c(-c2cncc(F)c2)c1Br [VII-035]
Pre-emergence action against STEME [1]: 100%
Post-emergence action against POAAN [2]: 100%
Pre-emergence action against POLCO in % [3]: 90%
Pre-emergence action against DIGSA in % [4]: 100%
Post-emergence action against STEME [5]: 100%
Pre-emergence action against AMARE in % [6]: 100%
Pre-emergence action at 320 g/ha against ALOMY in % [7]: 100%
Post-emergence action against ABUTH [8]: 90%
Pre-emergence action against POAAN [9]: 100%
Pre-emergence action against SETVI in % [10]: 100%
Pre-emergence action against ABUTH [11]: 90%
Pre-emergence action against SETVI [12]: 100%
Pre-emergence action against AMARE [13]: 100%
Pre-emergence action against MATIN [14]: 100%
Pre-emergence action against ECHCG [15]: 100%

CCOC(=O)COc1nn(-c2ccccc2F)c(-c2ccc(F)nc2)c1I [VII-036]
Pre-emergence action against STEME [1]: 100%
Post-emergence action against POAAN [2]: 100%
Pre-emergence action against POLCO in % [3]: 100%
Pre-emergence action against DIGSA in % [4]: 100%
Post-emergence action against STEME [5]: 100%
Pre-emergence action against AMARE in % [6]: 100%
Pre-emergence action at 320 g/ha against ALOMY in % [7]: 100%
Post-emergence action against ABUTH [8]: 90%
Pre-emergence action against POAAN [9]: 100%
Pre-emergence action against SETVI in % [10]: 100%
Pre-emergence action against ABUTH [11]: 90%
Pre-emergence action against SETVI [12]: 100%
Pre-emergence action against AMARE [13]: 100%
Pre-emergence action against MATIN [14]: 100%
Pre-emergence action against ECHCG [15]: 100%
